Experimental data taken from patent US12679878B2, “CRF2 receptor agonists and their use in therapy” (SANOFI, priority 2020, dated 2026).
Like-named read-outs stand apart in the source and are kept apart here. Starred links: 1 amine or outer side, 2 acyl side, 3 side chain; linkers in the order of their positions; H or OH if unused. Non-standard residues stand in square brackets, D forms with d. Residues, ends and D or L forms follow the SMILES beside them. Groups on a side chain read outwards from the residue. *: point of attachment. C18 diacid = O=C(O)CCCCCCCCCCCCCCCCC(=O)*; γGlu = O=C(O)[C@H](CCC(=O)[*:2])N[*:1]; AEEA = NCCOCCOCC(=O)O; Aib = CC(C)(N)C(=O)O

Tests used:
[1] = molecular target: T1, human CRF2α receptor (Homo sapiens, UniProt Q13324); test: cAMP agonism at human CRF2 α receptor in TeloHEAC cells (Example 7); format: cell-based; details: cAMP HTRF, TeloHEAC cells stably expressing human CRF2 α
T1 construct: expressed in transfected cells; host or cells: TeloHEAC
T1 sequence (Q13324 1-411): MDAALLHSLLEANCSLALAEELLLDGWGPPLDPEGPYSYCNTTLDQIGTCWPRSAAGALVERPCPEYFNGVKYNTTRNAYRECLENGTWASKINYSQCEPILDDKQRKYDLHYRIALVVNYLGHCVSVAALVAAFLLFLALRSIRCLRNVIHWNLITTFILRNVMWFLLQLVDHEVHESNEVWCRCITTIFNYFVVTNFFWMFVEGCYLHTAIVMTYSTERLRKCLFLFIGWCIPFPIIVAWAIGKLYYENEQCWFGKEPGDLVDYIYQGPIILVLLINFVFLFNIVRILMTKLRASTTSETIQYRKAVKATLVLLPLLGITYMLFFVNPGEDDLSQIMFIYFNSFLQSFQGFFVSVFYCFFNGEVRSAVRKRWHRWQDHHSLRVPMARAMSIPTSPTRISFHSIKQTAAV
In short: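 Steps: thaw and wash cells; suspend in 1×HBSS, 20 mM HEPES, 0 or 0.1% HSA, 2 mM IBMX; add compound, 30 min RT; lyse with HTRF reagents, 1 h; read 665/620 nm. EC50 calculated, E% versus 1000 nM UCN2.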

[2] = molecular target: T2, CRF1R receptor (Homo sapiens, UniProt P34998); test: cAMP activity at anti-target CRF1R, CHO-K1 cell line clone 2 (Example 19.10); format: cell-based; details: CRF1R CHO-K1 clone 2; for EC50: 0% HSA, read-out: EC50 [nM] 0% HSA; for Emax: 100% = Sauvagine at 100 nM
T2 construct: host or cells: CHO-K1 clone 2
T2 sequence (P34998 24-415): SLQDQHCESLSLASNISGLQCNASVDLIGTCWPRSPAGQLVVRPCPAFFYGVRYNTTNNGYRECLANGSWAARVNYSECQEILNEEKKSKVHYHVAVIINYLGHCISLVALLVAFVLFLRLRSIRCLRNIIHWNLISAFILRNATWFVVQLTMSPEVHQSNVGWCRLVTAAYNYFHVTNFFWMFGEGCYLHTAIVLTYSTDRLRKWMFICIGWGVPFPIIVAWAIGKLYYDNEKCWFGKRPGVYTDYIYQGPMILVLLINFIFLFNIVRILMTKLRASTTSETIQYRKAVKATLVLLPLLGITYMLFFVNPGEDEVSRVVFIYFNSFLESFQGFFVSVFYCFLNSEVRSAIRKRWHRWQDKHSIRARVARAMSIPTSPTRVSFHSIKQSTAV
In short: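 A CRF1R-overexpressing CHO-K1 line (clone 2) was grown in F12/10% FBS/G418 and frozen in aliquots before use. The cAMP assay followed the preceding procedure, with 100% activation defined by Sauvagine at 100 nM.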

[3] = 0% HSA, read-out: EC50 [nM], 0% HSA
[4] = 0.1% HSA, read-out: EC50 [nM], 0.1% HSA

EC50 [1, 3] [nM] | EC50 [1, 4] [nM] | EC50 [2] [nM] | Emax [2] [%] | SMILES
0.29 | 14.3 | > 100 | 2.6 | CC[C@H](C)[C@H](N)C(=O)N[C@H](C(=O)N[C@@H](CC(C)C)C(=O)N[C@@H](CO)C(=O)N[C@@H](CC(C)C)C(=O)N[C@@H](CC(=O)O)C(=O)N[C@H](C(=O)N1CCC[C@H]1C(=O)N[C@H](C(=O)NCC(=O)N[C@@H](CC(C)C)C(=O)N[C@@H](CCCCNC(=O)COCCOCCNC(=O)COCCOCCNC(=O)CC[C@H](NC(=O)CCCCCCCCCCCCCCCCC(=O)O)C(=O)O)C(=O)N[C@@H](CCC(N)=O)C(=O)N[C@H](C(=O)N[C@@H](CC(C)C)C(=O)N[C@@H](CC(C)C)C(=O)N[C@@H](CCCCN)C(=O)N[C@@H](CCC(N)=O)C(=O)N[C@@H](CCC(=O)O)C(=O)N[C@@H](CCCNC(=N)N)C(=O)N[C@@H](CCC(N)=O)C(=O)N[C@@H](CCCCN)C(=O)N[C@@H](CCCCN)C(=O)NC(C)(C)C(=O)N[C@@H](CCCNC(=N)N)C(=O)N[C@@H](CCC(=O)O)C(=O)N[C@@H](CCC(N)=O)C(=O)N[C@@H](C)C(=O)N[C@@H](CCC(=O)O)C(=O)N[C@H](C(=O)N[C@@H](CC(N)=O)C(=O)N[C@@H](CCCCN)C(=O)N[C@@H](CCCNC(=N)N)C(=O)N[C@H](C(=O)N[C@@H](CC(C)C)C(=O)N[C@@H](CCC(=O)O)C(=O)N[C@@H](CCCNC(=N)N)C(=O)N[C@H](C(N)=O)C(C)C)[C@@H](C)CC)[C@@H](C)O)[C@@H](C)CC)[C@@H](C)CC)C(C)C)C(C)C [compound 148] (H-IVLSLDVPIGLK([AEEA-AEEA-γGlu-C18 diacid])QILLKQERQKK[Aib]REQAETNKRILERV-NH2; N-terminus assumed)
0.06 | 2.54 | > 100 | 6.6 | CC[C@H](C)[C@H](N)C(=O)N[C@H](C(=O)N[C@@H](CC(C)C)C(=O)N[C@@H](CO)C(=O)N[C@@H](CC(C)C)C(=O)N[C@@H](CC(=O)O)C(=O)N[C@@H](C(=O)N1CCC[C@H]1C(=O)N[C@H](C(=O)N[C@@H](CCCCN)C(=O)N[C@@H](CC(C)C)C(=O)N[C@@H](CCCCNC(=O)COCCOCCNC(=O)COCCOCCNC(=O)CC[C@H](NC(=O)CCCCCCCCCCCCCCCCC(=O)O)C(=O)O)C(=O)N[C@@H](CCC(N)=O)C(=O)N[C@H](C(=O)N[C@@H](CC(C)C)C(=O)N[C@@H](CC(C)C)C(=O)N[C@@H](CCCCN)C(=O)N[C@@H](CCC(N)=O)C(=O)N[C@@H](CCC(=O)O)C(=O)N[C@@H](CCCNC(=N)N)C(=O)N[C@@H](CCC(N)=O)C(=O)N[C@@H](CCCCN)C(=O)N[C@@H](CCCCN)C(=O)NC(C)(C)C(=O)N[C@@H](CCCNC(=N)N)C(=O)N[C@@H](CCC(=O)O)C(=O)N[C@@H](CCC(N)=O)C(=O)N[C@@H](C)C(=O)N[C@@H](CCC(=O)O)C(=O)N[C@H](C(=O)N[C@@H](CC(N)=O)C(=O)N[C@@H](CCCCN)C(=O)N[C@@H](CCCNC(=N)N)C(=O)N[C@H](C(=O)N[C@@H](CC(C)C)C(=O)N[C@@H](CCC(=O)O)C(=O)N[C@@H](CCCNC(=N)N)C(=O)N[C@H](C(N)=O)C(C)C)[C@@H](C)CC)[C@@H](C)O)[C@@H](C)CC)[C@@H](C)CC)C(C)C)C(C)C [compound 149] (H-IVLSLD[dV]PIKLK([AEEA-AEEA-γGlu-C18 diacid])QILLKQERQKK[Aib]REQAETNKRILERV-NH2; N-terminus assumed)
0.07 | 3.99 | > 100 | 7.2 | CC[C@H](C)[C@H](N)C(=O)N[C@H](C(=O)N[C@@H](CC(C)C)C(=O)N[C@@H](CO)C(=O)N[C@@H](CC(C)C)C(=O)N[C@@H](CC(=O)O)C(=O)N[C@@H](C(=O)N1CCC[C@H]1C(=O)N[C@H](C(=O)NCC(=O)N[C@@H](CC(C)C)C(=O)N[C@@H](CCCCNC(=O)COCCOCCNC(=O)COCCOCCNC(=O)CC[C@H](NC(=O)CCCCCCCCCCCCCCCCC(=O)O)C(=O)O)C(=O)N[C@@H](CCC(N)=O)C(=O)N[C@H](C(=O)N[C@@H](CC(C)C)C(=O)N[C@@H](CC(C)C)C(=O)N[C@@H](CCCCN)C(=O)N[C@@H](CCC(N)=O)C(=O)N[C@@H](CCC(=O)O)C(=O)N[C@@H](CCCNC(=N)N)C(=O)N[C@@H](CCC(N)=O)C(=O)N[C@@H](CCCCN)C(=O)N[C@@H](CCCCN)C(=O)NC(C)(C)C(=O)N[C@@H](CCCNC(=N)N)C(=O)N[C@@H](CCC(N)=O)C(=O)N[C@@H](CCC(N)=O)C(=O)N[C@@H](C)C(=O)N[C@@H](CCC(=O)O)C(=O)N[C@H](C(=O)N[C@@H](CC(N)=O)C(=O)N[C@@H](CCCCN)C(=O)N[C@@H](CCCNC(=N)N)C(=O)N[C@H](C(=O)N[C@@H](CC(C)C)C(=O)N[C@@H](CCC(=O)O)C(=O)N[C@@H](CCCNC(=N)N)C(=O)N[C@H](C(N)=O)C(C)C)[C@@H](C)CC)[C@@H](C)O)[C@@H](C)CC)[C@@H](C)CC)C(C)C)C(C)C [compound 150] (H-IVLSLD[dV]PIGLK([AEEA-AEEA-γGlu-C18 diacid])QILLKQERQKK[Aib]RQQAETNKRILERV-NH2; N-terminus assumed)
0.09 | 4.94 | > 100 | 4.9 | CC[C@H](C)[C@H](N)C(=O)N[C@H](C(=O)N[C@@H](CC(C)C)C(=O)N[C@@H](CO)C(=O)N[C@@H](CC(C)C)C(=O)N[C@@H](CC(=O)O)C(=O)N[C@H](C(=O)N1CCC[C@H]1C(=O)N[C@H](C(=O)N[C@@H](CCCCN)C(=O)N[C@@H](CC(C)C)C(=O)N[C@@H](CCCCNC(=O)COCCOCCNC(=O)COCCOCCNC(=O)CC[C@H](NC(=O)CCCCCCCCCCCCCCCCC(=O)O)C(=O)O)C(=O)N[C@@H](CCC(N)=O)C(=O)N[C@H](C(=O)N[C@@H](CC(C)C)C(=O)N[C@@H](CC(C)C)C(=O)N[C@@H](CCCCN)C(=O)N[C@@H](CCC(N)=O)C(=O)N[C@@H](CCC(=O)O)C(=O)N[C@@H](CCCNC(=N)N)C(=O)N[C@@H](CCC(N)=O)C(=O)N[C@@H](CCCCN)C(=O)N[C@@H](CCCCN)C(=O)NC(C)(C)C(=O)N[C@@H](CCCNC(=N)N)C(=O)N[C@@H](CCC(=O)O)C(=O)N[C@@H](CCC(N)=O)C(=O)N[C@@H](C)C(=O)N[C@@H](CCC(=O)O)C(=O)N[C@H](C(=O)N[C@@H](CC(N)=O)C(=O)N[C@@H](CCCCN)C(=O)N[C@@H](CCCNC(=N)N)C(=O)N[C@H](C(=O)N[C@@H](CC(C)C)C(=O)N[C@@H](CCC(=O)O)C(=O)N[C@@H](CCCNC(=N)N)C(=O)N[C@H](C(N)=O)C(C)C)[C@@H](C)CC)[C@@H](C)O)[C@@H](C)CC)[C@@H](C)CC)C(C)C)C(C)C [compound 152] (H-IVLSLDVPIKLK([AEEA-AEEA-γGlu-C18 diacid])QILLKQERQKK[Aib]REQAETNKRILERV-NH2; N-terminus assumed)
1.06 |  | > 100 | 4 | CC[C@H](C)[C@H](N)C(=O)N[C@H](C(=O)N[C@@H](CC(C)C)C(=O)N[C@@H](CO)C(=O)N[C@@H](CC(C)C)C(=O)N[C@@H](CC(=O)O)C(=O)N[C@H](C(=O)N1CCC[C@H]1C(=O)N[C@H](C(=O)NCC(=O)N[C@@H](CC(C)C)C(=O)N[C@@H](CCCCNC(=O)COCCOCCNC(=O)COCCOCCNC(=O)CC[C@H](NC(=O)CCCCCCCCCCCCCCCCC(=O)O)C(=O)O)C(=O)N[C@@H](CCC(N)=O)C(=O)N[C@H](C(=O)N[C@@H](CC(C)C)C(=O)N[C@@H](CC(C)C)C(=O)N[C@@H](CCCCN)C(=O)N[C@@H](CCC(N)=O)C(=O)N[C@@H](CCC(=O)O)C(=O)N[C@@H](CCCNC(=N)N)C(=O)N[C@@H](CCC(N)=O)C(=O)N[C@@H](CCCCN)C(=O)N[C@@H](CCCCN)C(=O)NC(C)(C)C(=O)N[C@@H](CCCNC(=N)N)C(=O)N[C@@H](CCC(=O)O)C(=O)N[C@@H](CCC(N)=O)C(=O)N[C@@H](C)C(=O)N[C@@H](CCC(=O)O)C(=O)N[C@H](C(=O)N[C@@H](CC(N)=O)C(=O)N[C@@H](C)C(=O)N[C@@H](CCC(N)=O)C(=O)N[C@H](C(=O)N[C@@H](CC(C)C)C(=O)N[C@@H](C)C(=O)N[C@@H](CCC(N)=O)C(=O)N[C@H](C(N)=O)C(C)C)[C@@H](C)CC)[C@@H](C)O)[C@@H](C)CC)[C@@H](C)CC)C(C)C)C(C)C [compound 156] (H-IVLSLDVPIGLK([AEEA-AEEA-γGlu-C18 diacid])QILLKQERQKK[Aib]REQAETNAQILAQV-NH2; N-terminus assumed)
